# Literature values in US20210196621A1, “ALCOHOL-FREE BOTANICAL ORAL CARE PRODUCTS” (The Trustees of Columbia University in the City of New York, priority 2018, published 2021).
# Key:
# [1] = oral rinses, WO 2014/092999
Compound,Synergistic activity with thymol and vanilla extract [1],Synergism with botanical blend absent pomegranate extract (absent pomegranate extract),Synergism with botanical blends containing pomegranate extract (blends containing pomegranate extract)
PHMB,showed synergistic activity,–,–
[H]/N=C(\N/C(=N/[H])NCCCCCCNC(=N)NC(=N)Nc1ccc(Cl)cc1)Nc1ccc(Cl)cc1 [chlorhexidine],did not,did not show significant synergism,synergistically enhanced the antibacterial activity
